Laboratory results as given in patent publication US12076394B2, “Cytosolic delivery of peptides using protein transduction domain mimics” (University of Massachusetts, priority 2020, dated 2024).
Where two headings read alike, the source gives them in different places. One block for each compound: values may come before it. Where no end group is shown, it is not given here. FAM = Fluorescein Amidites label

Columns and labels:
whole blood [1] = experiment: Inflammatory cytokine panel (cytometric bead array) after co-delivery of SIINFEKL and CpG into whole blood; conditions: 24 hours after 60-minute treatment
Method: (§1) A multi-analyte inflammatory cytokine panel was used to understand the immune response when CpG was added to the complexes. GpC, a nonfunctional analogue of CpG, was included as a negative control to preclude the role of nonspecific TLR9 activation during incubation. At 24 hours, following the 60-minute treatment with the non-covalent polymer-[sequence]-CpG complexes, supernatants from whole blood were tested the inflammatory cytokines: IL-1β, IFN-α, IFN-γ, TNF-α, MCP-1, IL-6, IL-8, IL-10, IL-12p70, IL-17A, IL-18, IL-23, and IL-33.
(§2) Whole human blood was obtained from healthy volunteers under signed consent in Roche Vacutainers containing hirudin. In all cases, blood was used within 10 minutes of the tapping from the donor. The blood was distributed into Eppendorf tubes containing preassembled polymer preparations in RPMI 1640 with no supplements and incubated up to 1 hour at 37° C. on rotation (60 RPM). In general, 400 μL of blood was combined with 100 μL of polymer complex prepared in RPMI 1640 for a final volume of 500 μL.
(§3) After one hour of incubation with treatment as reported under cell preparation and culture, cells were pelleted at 400 g for 2 minutes and supernatant was removed. […] Cytokine production was detected using the human inflammation cytometric bead array Legendplex™ from BioLegend® (740118).

whole blood [2] = system: whole blood
Method: as §1, §2, §3

[3] = system: bone marrow derived dendritic cells; experiment: Delivery into bone marrow derived dendritic cells, flow cytometry; assay type: cell-based, mouse; conditions: 1 μM antigen, free or with PTDM at 1:10, 4 hours
Method: To test SIINFEKL delivery and presentation for T cell activation, bone marrow derived dendritic cells were differentiated from B56 mouse bone marrow for 6 days in the presence of 20 ng/mL mouse GM-CSF. After 6 days, cells were harvested and treated with 1 μM fluorescently labeled SIINFEKL or OVA both free and in complex with PTDM molar ratio of 1:10 for 4 hours.
Immature dendritic cells were differentiated from murine bone marrow according to established protocols. (Dewitte, et al. J. Control. Release 2014, 195, 138-146.) RBCs were lysed using BioLegend® lysis buffer and cells were plated at a density of 2×10^5 cells/mL in complete RPMI (listed under cell lines) with the addition of 20 ng/mL recombinant mouse GM-CSF. Cells were cultured for 6 days with the addition of 10 mL fresh media and cytokines on day 3. Non-adherent and loosely adherent cells were harvested on day 6 and cells were pelleted, counted, and plated at a density of 2×10^6 cells/mL.
THP-1 monocytes, immature dendritic cells, and bone marrow derived dendritic cells were analyzed using a BD LSR Fortessa 20X flow cytometer with five lasers and 18 channels. […] Only cells negative for 7-AAD were assessed for either uptake or presentation of markers. Multi-color flow cytometric analysis spectral overlap was corrected by appropriate compensation and analyzed using FlowJo 10.2 (v3.05470) by Tree Star, Ashland, OR, USA.

whole blood [4] = experiment: Delivery of FAM labeled SIINFEKL into whole blood (time and concentration survey), flow cytometry; assay type: cell-based, human; conditions: molar ratio 1:10; 15, 30, 45 or 60 minutes; free peptide 60 minutes
Method: The specificity of the polymer-antigen complex uptake by monocytes was tested in whole blood. FAM (Fluorescein Amidites) labeled SIIFNEKL was delivered into whole blood using Me-Ph10-b-dG5 at a molar ratio of 1:10, for 15, 30, 45, or 60 minutes to investigate the kinetics of uptake. MFI and uptake in monocytes were not statistically different regardless of the incubation time. Additionally, complex uptake was compared with free SIINFEKL-FAM allowed to incubate with whole blood for 60 minutes.
FAM labeled SIINFEKL was delivered into whole blood using Me-Ph10-b-dG5 at a molar ratio of 1:10 at increasing peptide concentrations (0.25, 0.5, 1, and 2 μM).
After incubation, cells were pelleted at 200 g for 5 minutes and the supernatant was removed. Red blood cells were lysed in using BD Pharm lysis buffer and subsequently washed with 1% FBS in PBS twice before staining with antibodies. Unspecific binding was blocked for 10 minutes using human or mouse IgG respectively. Antibody surface staining was performed using Human CD14-APC, CD4O-PE, CD80-AF488, CD86-BV711, CD209-APC, HLA-DR-APC-Cy7, or mouse CD11c-AF488, CD86-AF647, HLA-DR, H-2K^b-PE as indicated by manufacturer (BD® or BioLegend®). […]

inflammatory cytokine response, in words (whole blood [1]): no increase in inflammatory response
Compound: CC[C@H](C)[C@H](NC(=O)[C@@H](NC(=O)[C@@H](N)CO)[C@@H](C)CC)C(=O)N[C@@H](CC(N)=O)C(=O)N[C@@H](Cc1ccccc1)C(=O)N[C@@H](CCC(=O)O)C(=O)N[C@@H](CCCCN)C(=O)N[C@@H](CC(C)C)C(=O)O [SIINFEKL]

Compound: Me-Ph10-b-dG5 [PTDM]
inflammatory cytokine response, in words (whole blood [2]): did not induce the production of inflammatory cytokines

Compound: OVA: ovalbumin protein, fluorescently labeled, free antigen
uptake of fluorescently labeled SIINFEKL or OVA [3]: significantly less uptake

Compound: SIINFEKL-FAM: FAM (Fluorescein Amidites) labeled SIINFEKL, free peptide (SIINFEKL-{FAM})
uptake of FAM labeled SIINFEKL by leukocytes, time survey (whole blood [4]): not readily taken up
